Experiments:
Type in all cases: in vivo
[1] = test system: MOXIDECTIN-RESISTANT STRAIN OF H. contortus (MOF14); assay: Effect of verapamil on efficacy of moxidectin and ivermectin in jirds, moxidectin-resistant strain; settings: for EFFICACY (%) / WORM COUNTS (MEAN ± S.E.): MOF14 in jirds, 7 jirds/group, oral, MOX 0.017 mg/kg, IVM 0.028 mg/kg, VRP 20 mg/kg
[2] = test system: H. contortus susceptible (PF14) strain; assay: Efficacy of verapamil with or without ivermectin in jirds, susceptible strain; settings: for % EFFICACY: SUSCEPTIBLE (PF14) strain in jirds, oral, VRP 20 mg/kg, IVM 0.024 mg/kg
Experimental: (§1) Jirds, which are fed on a standard commercial ration to which 0.02% hydrocortisone has been added 5 days prior to infection, are inoculated with 1000 exsheathed L3 H. contortus. On day 10 after inoculation, the jirds are treated with either water or various doses of moxidectin or ivermectin orally. Each treatment group contains 6 jirds. Probit analyses are used to estimate LD50 levels for each anthelmintic against each strain.
(§2) H. contortus. Verapamil is given concomitantly with ivermectin by the oral route. Table 3. DEM[…] H. contortus […] OR S[…] IN JIRDS (n = # per group)

[3] = test system: H. contortus moxidectin-resistant (MOF14) strain; assay: Efficacy of verapamil with or without ivermectin in jirds, moxidectin resistant strain; settings: for % EFFICACY: MOX-RESISTANT (MOF14) strain in jirds, oral, VRP 20 mg/kg, IVM 0.046 mg/kg
Experimental: as §1, §2

[4] = verapamil 20 mg/kg, resistant worms in jirds (Example 8)

Molecule: CO/N=C1\C[C@]2(C[C@@H]3C[C@@H](C/C=C(\C)C[C@@H](C)/C=C/C=C4\CO[C@@H]5[C@H](O)C(C)=C[C@@H](C(=O)O3)[C@]45O)O2)O[C@H](/C(C)=C/C(C)C)[C@H]1C [moxidectin, 23-(O-methyloxime)-LL-F28249α]
- EFFICACY (%) [1]: 70%
- WORM COUNTS (MEAN ± S.E.) [1]: 14 ± 3

Molecule: 22,23-dihydroavermectin B1 [ivermectin]
- % EFFICACY [2]: 54%
- % EFFICACY [3]: 79%
- EFFICACY (%) [1]: 80%
- WORM COUNTS (MEAN ± S.E.) [1]: 9 ± 1

Molecule: COc1ccc(CCN(C)CCCC(C#N)(c2ccc(OC)c(OC)c2)C(C)C)cc1OC (centres unmarked) [verapamil]
- % EFFICACY [2]: 17%
- effect on worm counts ([2]; verapamil alone, 20 to 80 mg/kg oral, jirds infected with susceptible or moxidectin resistant H. contortus): no significant effect on worm counts
- % EFFICACY [3]: -53%
- effect of verapamil on the efficacy of ivermectin ([3]; verapamil 20 mg/kg, moxidectin resistant worms in jirds (Example 7)): significantly enhances the efficacy of ivermectin
- EFFICACY (%) [1]: -73%
- WORM COUNTS (MEAN ± S.E.) [1]: 80 ± 9
- effect of verapamil on the efficacy of moxidectin [1, 4]: significantly increases the efficacy of moxidectin
- increase in efficacy when verapamil is coadministered with ivermectin [1, 4]: not significant
